Test results as given in PubChem BioAssay AID248 (DTP/NCI, 2004).
“And” between values parts separate entries of the source, which are not always exact repeats. Identical values can stand only once. Inconclusive results and toxic doses are left out.

Test system: L1210 leukemia ip in BDF1 mice, survival T/C
Assay: NCI In Vivo Anticancer Drug Screen. Data for tumor model L1210 Leukemia (intraperitoneal) in B6D2F1 (BDF1) mice
Settings: endpoint: mean survival time, higher = longer survival
In short: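 Tumor was transplanted into mice, which were then dosed with test compound or vehicle alone. Survival was recorded for each group, and the treated figure was expressed relative to the control figure.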

[1] = dose: 100.0 mg/kg/injection, schedule: Q01DX001 (ip), vehicle: carboxymethylcellulose (CMC)
[2] = dose: 100.0 mg/kg/injection, schedule: Q01DX009 (ip), vehicle: saline with Tween-80
[3] = dose: 100.0 mg/kg/injection, schedule: Q04DX003 (ip), vehicle: saline with Tween-80
[4] = dose: 200.0 mg/kg/injection, schedule: Q01DX001 (ip), vehicle: carboxymethylcellulose (CMC)
[5] = dose: 200.0 mg/kg/injection, schedule: Q01DX009 (ip), vehicle: saline with Tween-80
[6] = dose: 200.0 mg/kg/injection, schedule: Q04DX003 (ip), vehicle: saline with Tween-80
[7] = dose: 400.0 mg/kg/injection, schedule: Q01DX001 (ip), vehicle: carboxymethylcellulose (CMC)
[8] = dose: 400.0 mg/kg/injection, schedule: Q01DX009 (ip), vehicle: saline with Tween-80
[9] = dose: 400.0 mg/kg/injection, schedule: Q04DX003 (ip), vehicle: saline with Tween-80
[10] = dose: 100.0 mg/kg/injection, schedule: Q01DX001 (ip), vehicle: Klucel (hydroxypropylcellulose) (HPC)
[11] = dose: 100.0 mg/kg/injection, schedule: Q04DX003 (ip), vehicle: saline
[12] = dose: 200.0 mg/kg/injection, schedule: Q04DX003 (ip), vehicle: saline

## CCc1ccc2c(c1)N(CCCN(CCCl)CCCl)c1ccccc1S2
dose: 1.56 mg/kg/injection, schedule: Q01DX009 (ip), vehicle: saline with Tween-80
  T/C: 107 % of control
dose: 3.12 mg/kg/injection, schedule: Q01DX001 (ip), vehicle: saline with Tween-80
  T/C: 97 % of control
dose: 3.12 mg/kg/injection, schedule: Q01DX009 (ip), vehicle: saline with Tween-80
  T/C: 102 % of control
dose: 6.25 mg/kg/injection, schedule: Q01DX001 (ip), vehicle: saline with Tween-80
  T/C: 97 % of control
dose: 6.25 mg/kg/injection, schedule: Q01DX009 (ip), vehicle: saline with Tween-80
  T/C: 100 % of control
dose: 6.25 mg/kg/injection, schedule: Q04DX003 (ip), vehicle: saline with Tween-80
  T/C: 110 % of control
dose: 12.5 mg/kg/injection, schedule: Q01DX001 (ip), vehicle: saline with Tween-80
  T/C: 111 % of control
dose: 12.5 mg/kg/injection, schedule: Q01DX009 (ip), vehicle: saline with Tween-80
  T/C: 102 % of control
dose: 12.5 mg/kg/injection, schedule: Q04DX003 (ip), vehicle: saline with Tween-80
  T/C: 111 % of control
dose: 25.0 mg/kg/injection, schedule: Q04DX003 (ip), vehicle: saline with Tween-80
  T/C: 111 % of control
dose: 50.0 mg/kg/injection, schedule: Q04DX003 (ip), vehicle: saline with Tween-80
  T/C: 111 % of control

## C=C1C(=O)C2(C)OC2(C)C1C(=O)O (configuration not stated)
dose: 1.25 mg/kg/injection, schedule: Q01DX009 (ip), vehicle: Klucel (hydroxypropylcellulose) (HPC)
  T/C: 94 % of control
dose: 2.5 mg/kg/injection, schedule: Q01DX009 (ip), vehicle: Klucel (hydroxypropylcellulose) (HPC)
  T/C: 100 % of control
dose: 5.0 mg/kg/injection, schedule: Q01DX009 (ip), vehicle: Klucel (hydroxypropylcellulose) (HPC)
  T/C: 105 % of control
dose: 10.0 mg/kg/injection, schedule: Q01DX009 (ip), vehicle: Klucel (hydroxypropylcellulose) (HPC)
  T/C: 101 % of control

## CN(C)/C=N\c1ncnc2c1c(C#N)cn2C1OC(CO)C(O)C1O (configuration not stated)
dose: 6.25 mg/kg/injection, schedule: Q01DX009 (ip), vehicle: saline
  T/C: 92 % of control
dose: 12.5 mg/kg/injection, schedule: Q01DX005 (ip), vehicle: saline
  T/C: 109 % of control
dose: 12.5 mg/kg/injection, schedule: Q01DX009 (ip), vehicle: saline
  T/C: 115 % of control
dose: 25.0 mg/kg/injection, schedule: Q01DX005 (ip), vehicle: saline
  T/C: 101 % of control
dose: 25.0 mg/kg/injection, schedule: Q01DX009 (ip), vehicle: saline
  T/C: 117 % of control

## NC(N)=N/C(N)=N/NC(=O)c1ccncc1
dose: 66.0 mg/kg/injection, schedule: Q01DX Z (ip), vehicle: methylcellulose (MC)
  T/C: 100 % of control
dose: 93.0 mg/kg/injection, schedule: Q01DX Z (ip), vehicle: methylcellulose (MC)
  T/C: 89 % of control
dose: 140.0 mg/kg/injection, schedule: Q01DX Z (ip), vehicle: methylcellulose (MC)
  T/C: 91 % of control

## c1ccc(OCC2CO2)cc1 (configuration not stated)
dose: 50.0 mg/kg/injection, schedule: Q01DX001 (ip), vehicle: carboxymethylcellulose (CMC)
  T/C: 100 % of control
[1]
  T/C: 100 % of control
[2]
  T/C: 96 % of control
[3]
  T/C: 95 % of control
[4]
  T/C: 105 % of control
[5]
  T/C: 93 % of control
[6]
  T/C: 97 % of control
[7]
  T/C: 97 % of control
[8]
  T/C: 98 % of control
[9]
  T/C: 97 % of control

## Cc1cccc(NC(=O)CSc2cc(Cl)c(Cl)cc2Cl)c1
dose: 100.0 mg/kg/injection, schedule: Q01DX001 (ip), vehicle: saline with Tween-80
  T/C: 93 % of control
dose: 200.0 mg/kg/injection, schedule: Q01DX001 (ip), vehicle: saline with Tween-80
  T/C: 90 % of control
dose: 400.0 mg/kg/injection, schedule: Q01DX001 (ip), vehicle: saline with Tween-80
  T/C: 87 % of control

## O=C(CN1CC1)NCCCCCCCNC(=O)CN1CC1
dose: 6.5 mg/kg/injection, schedule: Q01DX001 (ip), vehicle: carboxymethylcellulose (CMC)
  T/C: 120 % of control
dose: 7.0 mg/kg/injection, schedule: Q01DX009 (ip), vehicle: carboxymethylcellulose (CMC)
  T/C: 94 % of control
dose: 9.7 mg/kg/injection, schedule: Q01DX001 (ip), vehicle: carboxymethylcellulose (CMC)
  T/C: 123 % of control
dose: 11.0 mg/kg/injection, schedule: Q01DX009 (ip), vehicle: carboxymethylcellulose (CMC)
  T/C: 100 % of control
dose: 16.0 mg/kg/injection, schedule: Q01DX009 (ip), vehicle: carboxymethylcellulose (CMC)
  T/C: 94 % of control
dose: 25.0 mg/kg/injection, schedule: Q01DX009 (ip), vehicle: carboxymethylcellulose (CMC)
  T/C: 103 % of control
dose: 33.0 mg/kg/injection, schedule: Q01DX001 (ip), vehicle: carboxymethylcellulose (CMC)
  T/C: 154 % of control

## C[n+]1ccc(/C=C\c2ccc3c(c2)OCO3)cc1
dose: 75.0 mg/kg/injection, schedule: Q01DX001 (ip), vehicle: saline
  T/C: 100 % of control

## CC(C)=C(Br)CC[C@@H](C)[C@H]1CC[C@@]2(C)C3=C(CC[C@]12C)[C@@]1(C)CC[C@H](O)C(C)(C)[C@@H]1CC3
dose: 62.0 mg/kg/injection, schedule: Q01DX Z (sc), vehicle: steriod suspending solution
  T/C: 102 % of control
dose: 125.0 mg/kg/injection, schedule: Q01DX Z (sc), vehicle: steriod suspending solution
  T/C: 95 % of control
dose: 250.0 mg/kg/injection, schedule: Q01DX Z (sc), vehicle: steriod suspending solution
  T/C: 95 % of control
dose: 500.0 mg/kg/injection, schedule: Q01DX Z (sc), vehicle: steriod suspending solution
  T/C: 95 % of control

## CCOC(=O)c1[nH]c2ccsc2c1CN1CCCCC1
dose: 50.0 mg/kg/injection, schedule: Q01DX001 (ip), vehicle: Klucel (hydroxypropylcellulose) (HPC)
  T/C: 93 % of control
[10]
  T/C: 101 % of control

## CCOC(=O)CCN(CCC(=O)OCC)C(C)C
[2]
  T/C: 100 % of control
[3]
  T/C: 101 % of control
[5]
  T/C: 90 % of control
[6]
  T/C: 101 % of control
[8]
  T/C: 98 % of control
[9]
  T/C: 101 % of control

## CCOC(=O)C(O)(CC)c1ccncc1Br (configuration not stated)
dose: 75.0 mg/kg/injection, schedule: Q04DX003 (ip), vehicle: Klucel (hydroxypropylcellulose) (HPC)
  T/C: 95 % of control
[10]
  T/C: 102 % of control
dose: 150.0 mg/kg/injection, schedule: Q04DX003 (ip), vehicle: Klucel (hydroxypropylcellulose) (HPC)
  T/C: 91 % of control
dose: 200.0 mg/kg/injection, schedule: Q01DX001 (ip), vehicle: Klucel (hydroxypropylcellulose) (HPC)
  T/C: 102 % of control
dose: 300.0 mg/kg/injection, schedule: Q04DX003 (ip), vehicle: Klucel (hydroxypropylcellulose) (HPC)
  T/C: 101 % of control
dose: 400.0 mg/kg/injection, schedule: Q01DX001 (ip), vehicle: Klucel (hydroxypropylcellulose) (HPC)
  T/C: 112 % of control

## CC(CN=[N+]=[N-])OC(=O)C(F)(F)F (configuration not stated)
dose: 37.5 mg/kg/injection, schedule: Q04DX003 (ip), vehicle: saline
  T/C: 104 % of control
dose: 75.0 mg/kg/injection, schedule: Q04DX003 (ip), vehicle: saline
  T/C: 102 % of control
dose: 150.0 mg/kg/injection, schedule: Q04DX003 (ip), vehicle: saline
  T/C: 106 % of control

## CCCC(=O)NO
dose: 100.0 mg/kg/injection, schedule: Q01DX001 (ip), vehicle: saline
  T/C: 97 % of control
dose: 100.0 mg/kg/injection, schedule: Q01DX009 (ip), vehicle: saline
  T/C: 102 % of control
[11]
  T/C: 109 % of control and 105 % of control
dose: 200.0 mg/kg/injection, schedule: Q01DX001 (ip), vehicle: saline
  T/C: 114 % of control
dose: 200.0 mg/kg/injection, schedule: Q01DX009 (ip), vehicle: saline
  T/C: 104 % of control
[12]
  T/C: 111 % of control and 96 % of control
dose: 400.0 mg/kg/injection, schedule: Q01DX001 (ip), vehicle: saline
  T/C: 108 % of control
dose: 400.0 mg/kg/injection, schedule: Q01DX009 (ip), vehicle: saline
  T/C: 114 % of control
dose: 400.0 mg/kg/injection, schedule: Q04DX003 (ip), vehicle: saline
  T/C: 112 % of control and 100 % of control

## Cc1cc(-c2ccc(NC(=O)N(C)CCC#N)c(C)c2)ccc1NC(=O)N(C)CCC#N
dose: 100.0 mg/kg/injection, schedule: Q01DX009 (ip), vehicle: other
  T/C: 88 % of control
dose: 200.0 mg/kg/injection, schedule: Q01DX009 (ip), vehicle: other
  T/C: 97 % of control
dose: 400.0 mg/kg/injection, schedule: Q01DX009 (ip), vehicle: other
  T/C: 100 % of control

## C/C=N/N(C)C=O
[11]
  T/C: 104 % of control
[12]
  T/C: 119 % of control

## CC1=NNC(=O)C1Br (configuration not stated)
[1]
  T/C: 105 % of control
[4]
  T/C: 102 % of control
[7]
  T/C: 100 % of control
